One series concerns gap junctions. As to the kind of experiment: Lucifer Yellow dye scrape/load gap junction assay. The conditions noted are these: ARPE-19, scrape/load; XG19 5 μM. The series is classed as cell-based, human. How it is done: Peptides were applied onto cells for uptake as previously mentioned. Peptide solutions were removed from the cells and the cells were exposed to 0.1% […]/PBS dye (LY). A vertical and horizontal scrape was created in the cell monolayer using a pipette tip. The cells were then incubated at room temperature for 15 min. The LY dye solution was removed, cells were washed in PBS and fixed in 4% formaldehyde PBS with nuclei counterstained with DAPI. Coverslips were mounted in anti-fade medium (Citifluor™ AF1) and slides were imaged.

The target of series [1] is T1, Cx43 hemichannel (Homo sapiens, UniProt P17302). The series is described as follows: Hemichannel mediated ATP release assay (low calcium solution). Type of series: cell-based. The arrangement: endogenous in cells. Particulars: for ATP release compared to low calcium, 30 min: ARPE-19, 5 μM XG19, 100 μM Peptide5, 100 μM CBX, 30 min low calcium. On the procedure: Peptides were applied onto cells for uptake studies as previously described. Peptide solutions were removed from the cells, which were then exposed to either low calcium (Ca^2+) solution or HAIR solution to open hemichannels or high calcium solution to close hemichannels for […] at 37° C., 5% CO2.
T1 sequence (P17302 2-382 limits assumed): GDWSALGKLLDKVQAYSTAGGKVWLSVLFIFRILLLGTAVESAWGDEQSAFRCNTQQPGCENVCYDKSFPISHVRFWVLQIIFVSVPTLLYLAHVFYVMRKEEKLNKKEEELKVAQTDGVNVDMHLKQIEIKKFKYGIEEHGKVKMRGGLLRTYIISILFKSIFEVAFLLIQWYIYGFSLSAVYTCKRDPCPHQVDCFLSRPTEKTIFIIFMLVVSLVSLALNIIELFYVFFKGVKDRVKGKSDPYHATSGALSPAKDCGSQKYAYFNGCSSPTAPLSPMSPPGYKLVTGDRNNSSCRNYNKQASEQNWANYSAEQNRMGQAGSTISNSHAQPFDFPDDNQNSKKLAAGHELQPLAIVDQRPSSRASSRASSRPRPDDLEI

In series [2] the test system is ARPE-19 cells. As to the kind of experiment: MTT cytotoxicity assay. The conditions noted are these: ARPE-19 cells, 5, 10 or 20 μM for 1 or 24 h. Type of series: cell-based, human. On the procedure:
ARPE-19 cells were exposed to DMEM/F12 (normal medium) or HAIR solution for 1 h. XG19 was mixed in DMEM/F12 or HAIR solution and applied to ARPE-19 cells at 0, 5, 10 or 20 μM concentrations for either 1 or 24 h at 37° C., 5% CO2. After the incubation period, the solutions in each well were removed and replaced with 0.5 mg/mL, MTT (Thermo Fisher Scientific) in PBS and incubated for 4 h at 37° C. and 5% CO2. The MTT/PBS solution was then removed and replaced with HCl-isopropanol solution (0.04 M) to dissolve formed formazan. The intensity of purple colour was quantified by measuring absorbance at 570 nm with correction of interference at 650 nm (BioTek Synergy HT).

Series [3] has as its target T1, Cx43 hemichannel. As to the kind of experiment: Hemichannel mediated EthD-1 dye uptake assay. The series is classed as cell-based. Details: endogenous in cells. The conditions noted are these: ARPE-19 cells, 5 μM peptide, low calcium solution. On the procedure:
Peptides were applied onto cells for uptake as previously mentioned. Peptide solutions were removed from the cells exposed to 2 μM ethidium homodimer-1 (EthD-1) in either Hanks Buffered Salt Solution (137 mM NaCl, 5.4 mM KCl, 0.25 mM Na2HPO4, 0.1 g glucose, 0.44 mM KH2PO4, 1.0 mM MgSO4, 4.2 mM NaHCO3)+EGTA (5 mM) (low calcium solution) to open hemichannels or high calcium (Ca′) solution (Hanks Buffered Salt Solution+1.3 mM CaCl2)) for […] at 37° C., 5% CO2. The solutions were removed, cells were washed in PBS and fixed in 4% formaldehyde PBS before counterstaining nuclei with DAPI. Coverslips were mounted in anti-fade medium (Citifluor™ AF1) and slides were imaged.

Series [4] concerns ARPE-19 cells. As to the kind of experiment: Cellular uptake of FITC labelled peptides into ARPE-19 cells in normal medium. The series is classed as cell-based, human. Particulars: for concentration at which cellular uptake was detected (FITC fluorescence): normal medium, FITC labelled peptide, 1 h, 10-50 μM (Gap19 up to 100 μM). How it is done: Cell culture and maintenance Unless otherwise mentioned, all cell culture reagents were purchased from Gibco® or Invitrogen™ (Life Technologies). ARPE-19 cells are from a human retinal pigment epithelium cell line purchased from American Type Culture Collection (ATCC), and were maintained in T25 flasks in DMEM/F12 (DMEM/F-12, GlutaMAX™ medium containing 10% heat inactivated foetal bovine serum (FBS), and 1% Antibiotic-Antimicotic (Sigma)) at 37° C. with 5% CO2.
(§1) Peptides or control channel blockers, carbenoxolone (CBX) (Sigma) or lanthanum chloride (LaCl3; Sigma) were mixed with DMEM/F12 or EGM-2™ BulletKit™ media at appropriate concentrations and applied onto cells for 1 h at 37° C., 5% CO2. For cell uptake under hypoxic conditions, peptides were delivered in hypoxic, acidic ion-shifted Ringers (HAIR) solution (13) for 1 h at 37° C., 5% CO2. For cell uptake under hyperglycaemia and inflammation conditions peptides were delivered in hyperglycaemia and inflammation solution for 24 h at 37° C., 5% CO2. The solutions were removed and cells were washed in PBS and fixed in 4% formaldehyde PBS with nuclei were counterstained with DAPI. Coverslips were mounted in anti-fade medium (Citifluor™ AF1) and cells were visualised by confocal microscopy.

Another series relates to gap junction. Particulars: literature (6); cited from earlier work.
Series [5] concerns hyperglycaemic and inflamed ARPE-19 cells. As to the kind of experiment: Cellular uptake in hyperglycaemic and inflamed ARPE-19 cells. Type of series: cell-based, human. Particulars: ARPE-19, FITC labelled peptide, 24 h. On the procedure: The inflammatory cytokines TNFα and Il-1β (PeproTech) were added to achieve a final concentration of 10 ng/ml each. Antibiotic-Antimycotic was added to the solution to achieve a 1% concentration. The solution was made fresh before application to cells.
as §1

A further series has as its system hypoxic ARPE-19 cells. The series is described as follows: Cellular uptake in hypoxic ARPE-19 cells (HAIR solution). Type of series: cell-based, human. Particulars: ARPE-19, FITC labelled peptide, HAIR solution 1 h. How it is done:
as §1

For series [6], the target named is T1, Cx43 hemichannel. The conditions noted are these: ethidium bromide uptake, literature (6); cited from earlier work.
In another series the test system is hRMEC cells. As to the kind of experiment: Cellular uptake of FITC labelled peptides into hRMEC cells (confocal microscopy). The series is classed as cell-based, human. On the procedure:
Primary human retinal microvascular endothelial cells (hRMEC; Neuromics) were cultured and maintained in T25 flasks in EGM-2™ BulletKit™ media (Lonza) containing endothelial basal media (EBM-2; Lonza) and EGM-2 SingleQuots™ (Lonza), supplemented with 10% fetal bovine serum and 1% Antibiotic-Antimicotic (Sigma) at 37° C. with 5% CO2. VEGF was excluded from the EGM-2 media.
as §1

“Also recorded” adds a separate entry of the source. Non-standard residues stand in square brackets, D forms with d. Residues, ends and D or L forms follow the SMILES beside them. No end group written: not given here. Bounds are passed on as bounds.

Turning to `CC1(C)[C@@H](OC(=O)CCC(=O)O)CC[C@]2(C)[C@H]3C(=O)C=C4[C@@H]5C[C@@](C)(C(=O)O)CC[C@]5(C)CC[C@@]4(C)[C@]3(C)CC[C@@H]12` [CBX, carbenoxolone], the “gap junction function (Lucifer Yellow dye spread to neighbouring cells)” value in the series with gap junctions is recorded as “the dye was not further transported to any neighbouring cells; also recorded: inhibited gap junction communication”. Further, the “ATP release compared to low calcium, 30 min” value at Cx43 hemichannel [1] was “reduced ATP release”.

Regarding `CC[C@H](C)[C@H](NC(=O)[C@H](CCC(=O)O)NC(=O)[C@@H](NC(=O)[C@H](CCC(N)=O)NC(=O)[C@H](CCCCN)NC(=O)CNC(=O)CNC(=O)[C@H](NC(=O)[C@H]1CCCN1C(=O)[C@@H](CCCNC(=N)N)NC(=O)[C@@H](CC(C)C)NC(=O)[C@@H](CS)NC(=O)[C@H](N)CC(C)C)C(C)C)[C@@H](C)CC)C(=O)N[C@@H](CCCCN)C(=O)N[C@@H](CCCCN)C(=O)N[C@@H](Cc1ccccc1)C(=O)N[C@@H](CCCCN)C(=O)O` [XG19] (H-[dL][dC][dL][dR][dP][dV]GGKQIEIKKFK-OH), the “cell viability (MTT) compared to untreated cells” value with ARPE-19 cells [2] is given as “no significant difference in cell viability”.

Take “FITC-XG19: FITC labelled XG19 used in the cellular uptake experiments ([dL][dC][dL][dR][dP][dV]GGKQIEIKKFK; also: FITC label, site not given here)”: the “EthD-1 dye uptake (mean fluorescence intensity) compared to low calcium treatment” value in the series with Cx43 hemichannel [3] is “significant reduction of the mean fluorescence intensity; also recorded: reduced EthD-1 uptake”.

Consider “KQIEIKKFK (listed as Homo sapiens) [Gap19]”, for which the “concentration at which cellular uptake was detected (FITC fluorescence)” value with ARPE-19 cells [4] (ARPE-19 cells) is > 100 µM; in the series with hRMEC cells (FITC labelled peptide, 1 h, XG19 10, 20, 50 μM, Gap19 10, 20, 50, 100 μM) it was > 50 µM. For the same molecule, the “gap junction function post uptake” value in the series on gap junction is given as “maintain gap junction function”. For the same molecule, the “cellular uptake in hyperglycaemia and inflammation solution vs normal media” value in [5] is “undetectable in either condition; also recorded: no change in uptake”. Further, the “cellular uptake in hypoxic solution vs normal media” value in the series on hypoxic ARPE-19 cells is listed as “undetectable in either condition; also recorded: no change in uptake”. Besides, the “concentration at which efficacy improved” value with Cx43 hemichannel [6] is 344 to 688 µM. Further, in the series with Cx43 hemichannel [6], the “concentration with no effect on Cx43 hemichannel inhibition” value was > 172 µM. Besides, in the series on hRMEC cells (100 μM, still lower than 10 μM XG19), the “cellular uptake (FITC fluorescence) at 100 μM” value is recorded as “Some uptake was observed”.

VDCFLSRPTEKT [PepS]: the “ATP release relative to CBX treated group” value at Cx43 hemichannel [1] (ARPE-19, low calcium solution) is reported as “greater than CBX”. Also, the “ATP release compared to low calcium, 30 min” value at Cx43 hemichannel [1] is given as “reduced ATP release”.

Take “YGRKKRRQRRRKQIEIKKFK [TAT-Gap19, fusion peptide of TAT peptide and Gap19]”: in the series with ARPE-19 cells [4] (ARPE-19 cells), the “concentration at which cells were saturated with peptide” value stood at 20 µM and the “concentration at which cellular uptake was detected (FITC fluorescence)” value is ≤ 10 µM. Besides, in the series on ARPE-19 cells [4] (ARPE-19 cells, 10, 20, 50 μM), the “cellular uptake (FITC fluorescence), dependence on concentration” value was “dose dependant manner” and the “overall cellular uptake compared to XG19” value is reported as “higher cell uptake than XG19”. Further, the “overall cellular uptake compared to XG19” value in the series with ARPE-19 cells [4] (ARPE-19 cells, 10, 20, 50 μM, listed as TAT-GAP19) is reported as “much greater than for XG19 at all the tested concentrations”. The “subcellular localisation of peptide after uptake” value in the series with ARPE-19 cells [4] (ARPE-19 cells, FITC vs DAPI) is given as “mainly accumulated into the nucleus”.

The values above are taken from patent publication US11466069B2, “Methods of treatment and novel constructs” (AUCKLAND UNISERVICES LIMITED, priority 2017, dated 2022).
